From patent US6914045B2, “Glycopeptide antibiotics” (Wyeth Holdings Corporation, priority 2001, dated 2005)
Values after ≈ are worked out from the molar mass of the structure shown.

How the values were obtained:
Assay in all cases: in vitro antibacterial evaluation, MIC by broth dilution
Format in all cases: cell-based
Escherichia coli = system: Escherichia coli
In short: (§1)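 MIC, the lowest antibiotic concentration preventing growth, was read across 64-0.06 μg/mL with 5×10^5 CFU/mL inoculum. Method followed NCCLS M7-A2 broth dilution using Mueller-Hinton II; Gram-positive strains covered recent methicillin-, penicillin- and/or vancomycin-resistant clinical isolates.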

Enterococcus sp. = settings: broth dilution, 18 hours at 35° C.
In short: as §1

Staphylococcus sp. = settings: broth dilution, 18 hours at 35° C.; for MIC Staphylococcus aureus (GC 1131): strain GC 1131
In short: as §1

Streptococcus sp. = settings: broth dilution, 18 hours at 35° C.
In short: as §1

CC(c1ccccc1)C1NC(=O)CNC(=O)C(CO)NC(=O)C(C(O)C2CNC(=N)N2C2OC(CO)C(O)C(O)C2O)NC(=O)C(C(O)C2CNC(=N)N2)NC(=O)C(Cc2ccc(OC3OC(CO)C(OC4OC5COC(c6cccc(Cl)c6)OC5C(O)C4O)C(O)C3O)cc2)NC1=O (stereo not drawn) [Example 138, Cyclo[glycyl-β-methylphenylalanyl-O-[4-O-[4,6-O-(3-chlorobenzylidene)hexopyranosyl]-hexopyranosyl]tyrosyl-3-(2-iminoimidazolidin-4-yl)seryl-3-(3-hexopyranosyl-2-iminoimidazolidin-4-yl)serylseryl]]
MIC Escherichia coli (ATCC 25922) (Escherichia coli; strain ATCC 25922, 18 hours at 35° C.): 64 µg/mL (≈ 45.1 µM) | MIC Escherichia coli (GC 4559) (Escherichia coli; strain GC 4559, 18 hours at 35° C.): 64 µg/mL (≈ 45.1 µM) | MIC Escherichia coli (GC 4560) (Escherichia coli; strain GC 4560, 18 hours at 35° C.): 0.5 µg/mL (≈ 0.353 µM) | MIC Enterococcus avium (GC 4558) (Enterococcus sp.; Enterococcus avium (GC 4558)): 4 µg/mL (≈ 2.82 µM) | MIC Enterococcus faecalis (ATCC 29212) (Enterococcus sp.; Enterococcus faecalis (ATCC 29212)): 4 µg/mL (≈ 2.82 µM) | MIC Enterococcus faecalis (GC 2242) (Enterococcus sp.; Enterococcus faecalis (GC 2242)): 4 µg/mL (≈ 2.82 µM) | MIC Enterococcus faecalis (GC 2691) (Enterococcus sp.; Enterococcus faecalis (GC 2691)): 8 µg/mL (≈ 5.64 µM) | MIC Enterococcus faecalis (GC 3059) (Enterococcus sp.; Enterococcus faecalis (GC 3059)): 4 µg/mL (≈ 2.82 µM) | MIC Enterococcus faecalis (GC 4552) (Enterococcus sp.; Enterococcus faecalis (GC 4552)): 4 µg/mL (≈ 2.82 µM) | MIC Enterococcus faecalis (GC 4553) (Enterococcus sp.; Enterococcus faecalis (GC 4553)): 8 µg/mL (≈ 5.64 µM) | MIC Enterococcus faecalis (GC 4554) (Enterococcus sp.; Enterococcus faecalis (GC 4554)): 8 µg/mL (≈ 5.64 µM) | MIC Enterococcus faecalis (GC 6189) (Enterococcus sp.; Enterococcus faecalis (GC 6189)): 4 µg/mL (≈ 2.82 µM) | MIC Enterococcus faecium (GC 2243) (Enterococcus sp.; Enterococcus faecium (GC 2243)): 4 µg/mL (≈ 2.82 µM) | MIC Enterococcus faecium (GC 4556) (Enterococcus sp.; Enterococcus faecium (GC 4556)): 8 µg/mL (≈ 5.64 µM) | MIC Enterococcus faecium (GC 4557) (Enterococcus sp.; Enterococcus faecium (GC 4557)): 2 µg/mL (≈ 1.41 µM) | MIC Enterococcus faecalis (ATCC 29212) (Enterococcus sp.; strain ATCC 29212): 4 µg/mL (≈ 2.82 µM) | MIC Enterococcus faecalis (GC 2242) (Enterococcus sp.; strain GC 2242): 4 µg/mL (≈ 2.82 µM) | MIC Enterococcus faecium (GC 2243) (Enterococcus sp.; strain GC 2243): 4 µg/mL (≈ 2.82 µM) | MIC Enterococcus faecalis (GC 2691) (Enterococcus sp.; strain GC 2691): 8 µg/mL (≈ 5.64 µM) | MIC Enterococcus faecalis (GC 3059) (Enterococcus sp.; strain GC 3059): 4 µg/mL (≈ 2.82 µM) | MIC Enterococcus faecalis (GC 4552) (Enterococcus sp.; strain GC 4552): 4 µg/mL (≈ 2.82 µM) | MIC Enterococcus faecalis (GC 4553) (Enterococcus sp.; strain GC 4553): 8 µg/mL (≈ 5.64 µM) | MIC Enterococcus faecalis (GC 4554) (Enterococcus sp.; strain GC 4554): 8 µg/mL (≈ 5.64 µM) | MIC Enterococcus faecium (GC 4556) (Enterococcus sp.; strain GC 4556): 8 µg/mL (≈ 5.64 µM) | MIC Enterococcus faecium (GC 4557) (Enterococcus sp.; strain GC 4557): 2 µg/mL (≈ 1.41 µM) | MIC Enterococcus avium (GC 4558) (Enterococcus sp.; strain GC 4558): 4 µg/mL (≈ 2.82 µM) | MIC Enterococcus faecalis (GC 6189) (Enterococcus sp.; strain GC 6189): 4 µg/mL (≈ 2.82 µM) | MIC Staphylococcus aureus (GC 1131) (Staphylococcus sp.; inoculum 5×10^5 CFU/mL): 2 µg/mL (≈ 1.41 µM) | MIC Staphylococcus aureus (ATCC 29213) (Staphylococcus sp.; strain ATCC 29213): 2 µg/mL (≈ 1.41 µM) | MIC Staphylococcus aureus (GC 1131) (Staphylococcus sp.): 2 µg/mL (≈ 1.41 µM) | MIC Staphylococcus aureus (GC 3051) (Staphylococcus sp.; strain GC 3051): 2 µg/mL (≈ 1.41 µM) | MIC Staphylococcus aureus (GC 3053) (Staphylococcus sp.; strain GC 3053): 2 µg/mL (≈ 1.41 µM) | MIC Staphylococcus aureus (GC 4541) (Staphylococcus sp.; strain GC 4541): 2 µg/mL (≈ 1.41 µM) | MIC Staphylococcus aureus (GC 4542) (Staphylococcus sp.; strain GC 4542): 2 µg/mL (≈ 1.41 µM) | MIC Staphylococcus aureus-SMITH (GC 4543) (Staphylococcus sp.; strain GC 4543): 1 µg/mL (≈ 0.705 µM) | MIC Staphylococcus aureus (GC 4544) (Staphylococcus sp.; strain GC 4544): 2 µg/mL (≈ 1.41 µM) | MIC Staphylococcus aureus (GC 4545) (Staphylococcus sp.; strain GC 4545): 2 µg/mL (≈ 1.41 µM) | MIC Staphylococcus haemolyticus (GC 4546) (Staphylococcus sp.; strain GC 4546): 2 µg/mL (≈ 1.41 µM) | MIC Coagulase Negative Staphylococcus (GC 4547) (Staphylococcus sp.; strain GC 4547): 4 µg/mL (≈ 2.82 µM) | MIC Coagulase Negative Staphylococcus (GC 4548) (Staphylococcus sp.; strain GC 4548): 1 µg/mL (≈ 0.705 µM) | MIC Coagulase Negative Staphylococcus (GC 4549) (Staphylococcus sp.; strain GC 4549): 1 µg/mL (≈ 0.705 µM) | MIC Coagulase Negative Staphylococcus (GC 4551) (Staphylococcus sp.; strain GC 4551): 2 µg/mL (≈ 1.41 µM) | MIC Coagulase Negative Staphylococcus (GC 6257) (Staphylococcus sp.; strain GC 6257): 2 µg/mL (≈ 1.41 µM) | MIC Staphylococcus aureus-SMITH (GC 4543) (Staphylococcus sp.; strain SMITH GC 4543): 1 µg/mL (≈ 0.705 µM) | MIC Streptococcus agalactiae (GC 4564) (Streptococcus sp.; Streptococcus agalactiae (GC 4564)): 0.12 µg/mL (≈ 0.0846 µM) | MIC Streptococcus pneumoniae (ATCC 6301) (Streptococcus sp.; Streptococcus pneumoniae (ATCC 6301)): <0.06 µg/mL | MIC Streptococcus pneumoniae (GC 1894) (Streptococcus sp.; Streptococcus pneumoniae (GC 1894)): <0.06 µg/mL | MIC Streptococcus pneumoniae (GC 4565) (Streptococcus sp.; Streptococcus pneumoniae (GC 4565)): <0.06 µg/mL | MIC Streptococcus pyogenes (GC 4563) (Streptococcus sp.; Streptococcus pyogenes (GC 4563)): 0.25 µg/mL (≈ 0.176 µM) | MIC Streptococcus pneumoniae (ATCC 6301) (Streptococcus sp.; strain ATCC 6301): <0.06 µg/mL | MIC Streptococcus pneumoniae (GC 1894) (Streptococcus sp.; strain GC 1894): <0.06 µg/mL | MIC Streptococcus pyogenes (GC 4563) (Streptococcus sp.; strain GC 4563): 0.25 µg/mL (≈ 0.176 µM) | MIC Streptococcus agalactiae (GC 4564) (Streptococcus sp.; strain GC 4564): 0.12 µg/mL (≈ 0.0846 µM) | MIC Streptococcus pneumoniae (GC 4565) (Streptococcus sp.; strain GC 4565): <0.06 µg/mL
